Measured values published in patent US20090203692A1, “NOVEL CHEMICAL COMPOUNDS” (SMITHKLINE BEECHAM CORPORATION, priority 2005, published 2009).

Target: T1, hYAK3 (Homo sapiens, UniProt O43781)
T1 construct: GST (N); His6 (C); made in house; host or cells: baculovirus expression system in Sf9 cells
T1 sequence (O43781 142-526): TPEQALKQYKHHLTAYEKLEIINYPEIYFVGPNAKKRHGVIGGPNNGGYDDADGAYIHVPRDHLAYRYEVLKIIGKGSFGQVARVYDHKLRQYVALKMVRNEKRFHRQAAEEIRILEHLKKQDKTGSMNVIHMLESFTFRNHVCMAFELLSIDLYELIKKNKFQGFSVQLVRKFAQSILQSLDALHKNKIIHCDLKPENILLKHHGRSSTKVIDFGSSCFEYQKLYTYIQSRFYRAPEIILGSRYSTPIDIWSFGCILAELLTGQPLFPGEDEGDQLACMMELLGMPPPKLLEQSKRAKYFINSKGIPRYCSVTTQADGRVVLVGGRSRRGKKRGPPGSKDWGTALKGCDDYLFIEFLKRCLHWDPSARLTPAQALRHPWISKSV
Assay: YAK3 Scintillation Proximity Assay using Ser164 of myelin basic protein as the phosphoacceptor (kinase assay of purified hYAK3)
Assay type: biochemical
Settings: purified GST-hYak3-His6 4 nM; 1 μM ATP; 4 μM Ser164 peptide; 2 hours at room temperature; pIC50=-Log10(K)
Description: Substrate phosphorylation assays were carried out as follows:
YAK3 Scintillation Proximity Assays Using Ser164 of Myelin Basic Protein as the Phosphoacceptor
The source of Ser164 substrate peptide The biotinylated Ser164, S164A peptide(LGGRDSRAGS*PMARRKK-ahx-Biotin-Amide), sequence derived from the C-terminus of bovine myelin basic protein (MBP) with […] substituted as Ala 162, was purchased from California Peptide Research Inc. (Napa, Calif.), and its purity was determined by HPLC. Phosphorylation occurs at position 164 (marked S* above). The calculated molecular mass of the peptide is 2166 dalton. Solid sample was dissolved at 10 mM in DMSO, aliquoted, and stored at −20 C until use. […]
Kinase assay of purified hYAK3: Assays were performed in 96 well (Costar, Catalog No. 3789) or 384 well plates (Costar, Catalog No. 3705). […] Compounds, titrated in DMSO, were evaluated at concentrations ranging from 50 μM to 0.2 nM. […]
The data for compound dose responses were plotted as % Inhibition, calculated with the data reduction formula 100*(1−[(U1−C2)/(C1−C2)]), versus concentration of compound, where U is the unknown value, C1 is the average control value obtained for DMSO, and C2 is the average control value obtained for 0.05M EDTA. […] The results for each compound were recorded as pIC50 calculated as follows: pIC50=−Log 10(K).

SMILES: O=C1N=C(Nc2cccnc2Cl)S/C1=C\c1ccc2ncccc2c1 [Example 1, (5Z)-2-[(2-Chloro-3-pyridinyl)amino]-5-(6-quinolinylmethylidene)-1,3-thiazol-4(5H)-one]
- IC50: 1.58 nM
